“Also recorded” adds a separate entry of the source. Like-named read-outs stand apart in the source and are kept apart here.
What was measured:
[1] = tested on: proximal-mid colon, stripped of external muscle layers; experiment: Ion secretion from the murine colon, Ussing chamber short circuit current; parameters: species or system SvEv129 mice; conditions: 3 mM tryptamine, mucosal side
Experimental: A segment of proximal-mid colon, stripped of external muscle layers from each of three SvEv129 mice was mounted in 0.3 cm^2 area, 4 mL Ussing chamber. […] (FIG. 6).
The function of tryptamine in the context of microbe-host signaling in the gut was examined. An experiment to test whether tryptamine is capable of inducing ion secretion by intestinal epithelial cells was performed. Using an Ussing chamber, a segment of proximal-mid murine colon mucosa was exposed to two concentrations of tryptamine and the change of short circuit current was measured.

[2] = tested on: full-thickness colonic segments; experiment: Open organ bath intraluminal pressure of mouse colonic segments ex vivo
Experimental: Preparations of full-thickness colonic segments (˜1.5 cm) were allowed to equilibrate in 37° C. Kreb's-jacketed organ baths with their distal ends opening to a pressure transducer and maintained under basal pressure of 5-cm column of vehicle (RL). The proximal end was closed during pressure recordings but opened to allow luminal infusion of vehicle or tryptamine in solution (100 μM, 1 mM and 3 mM; 10 minutes per treatment; n=5-7 mice).

[3] = tested on: proximal colon, stripped of external muscle layers; experiment: Ussing chamber short circuit current of proximal colon from GF, HM and CR mice; conditions: for cumulative concentration response curves (intestinal secretion): serosal application, GF vs HM and CR mice; for EC50: Mus musculus; for EC50 / Emax (Δ Isc): serosal
Experimental: Colonic mucosal transepithelial resistance (TER) was measured at the beginning of each experiment and FITC Dextran (4 k Da) flux was determined from the linear fit of samples obtained from the serosal side every 5 minutes for 30 minutes after adding 1 mg/mL FITC-Dextran to the mucosal side. Change in short circuit current (Δ lsc) was determined in response to electrical field stimulation (EFS) using foil electrodes on the submucosal side (30-150V, 100 0.5 ms pulses at 1-2 Hz). There was no significant difference in Δ lsc between GF and HM in response to EFS at 1 Hz (138±42 vs 202±71 μA/cm^2; n=4; p>0.05) or 2 Hz (180±28 vs 252±70 μA/cm^2; n=4; p>0.05).
Acetylcholine (Ach) in increasing concentrations (0.01-300 μM) on the serosal side was used as a control for tissue reactivity. Cumulative concentration response curves induced by serosal ACh were not different between GF and HM as evident by similar Emax (261±38 vs 299±27 μA/cm^2; n=5; p>0.05) and EC50 (20.6±3 vs 22.7±9 μM) values.

[4] = tested on: 5HTR4; conditions: for response (Δ Isc) to mucosal application / response (Δ Isc) to serosal application: 5HTR4 KO mice
Experimental: The response to […] (5HT; 0.003-300 μM) on the mucosal or serosal side and tryptamine (0.003-3000 μM) on the mucosal or serosal side was determined in segments of proximal colon, stripped of external muscle layers, from both 5HTR4 KO and WT mice.

[5] = tested on: tryptophan hydroxylase 1 (Tph1) mRNA expression in BON cells
Experimental: Cells were plated at 1×10^5 per ml and grown to 90% confluency in 12-well culture plates. Culture wells were then treated (in triplicate) with tryptamine in media for 6 hours, fixed in RNA Protect (Qiagen) and subjected to qRT-PCR.

[6] = tested on: proximal colon, stripped of external muscle layers; experiment: Ussing chamber short circuit current of proximal colon from GF, HM and CR mice; conditions: HM or CR mice
[7] = molecular target: T1, CLOSPO_02083 (Clostridium sporogenes, UniProt J7SZ64); experiment: Inhibition of CLOSPO_02083 tryptamine production by (S)-α-FMT, progress curves; assay type: biochemical; conditions: CLOSPO_02083, 10 mM Trp
T1 construct: His6 (N); made in house; host or cells: E. coli BL21 (DE3)
T1 sequence (J7SZ64 whole entry): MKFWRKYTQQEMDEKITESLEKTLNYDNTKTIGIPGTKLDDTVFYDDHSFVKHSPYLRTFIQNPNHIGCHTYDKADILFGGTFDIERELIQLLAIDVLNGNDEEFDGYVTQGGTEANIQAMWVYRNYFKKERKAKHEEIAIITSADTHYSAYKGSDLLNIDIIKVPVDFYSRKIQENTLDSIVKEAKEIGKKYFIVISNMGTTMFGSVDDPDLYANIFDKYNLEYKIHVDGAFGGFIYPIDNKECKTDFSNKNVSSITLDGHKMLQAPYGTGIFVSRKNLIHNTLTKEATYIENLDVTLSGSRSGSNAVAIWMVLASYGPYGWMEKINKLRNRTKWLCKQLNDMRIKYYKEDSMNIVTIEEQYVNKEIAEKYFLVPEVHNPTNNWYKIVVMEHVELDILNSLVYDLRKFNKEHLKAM
Excerpt: (§1) Progress curves were fitted to the equation [P]=(vi/kobs)(1−exp(−kObst)), where P is the product formed at time t, vi is the initial velocity, and kobs is the apparent first-order rate constant for enzyme inactivation. The kobs were plotted versus inhibitor concentration and fitted to the equation kobs=kinact[I]/(Kapp+[I]), where Kapp is the apparent dissociation constant of the reversible enzyme-inhibitor complex, and kinact is the first-order rate constant for apparent irreversible conversion of the enzyme-inhibitor complex to covalently bound complex. Ki values were calculated using the equation Ki=Kapp/(1+[tryptophan])/Km,Trp) using experimentally determined Km values for tryptophan (Schirmer et al., Proc. Natl. Acad. Sci. USA, 103(11):4234-4239 (2006)).
(§2) The production of tryptamine was measured by HPLC in the presence of various concentrations of inhibitor over 30 minutes and progress curves of the reaction were analyzed to assess the kinetics of inhibition.

[8] = molecular target: T2, RUMGNA_01526 (Mediterraneibacter gnavus, UniProt A7B1V0); experiment: Inhibition of RUMGNA_01526 tryptamine production by (S)-α-FMT, progress curves; assay type: biochemical, Ruminococcus gnavus; conditions: RUMGNA_01526, 2.5 mM Trp
T2 construct: His6 (N); made in house; host or cells: E. coli BL21 (DE3)
Excerpt: as §1, §2

[9] = molecular target: T1, CLOSPO_02083; assay type: biochemical; conditions: for decarboxylation of Phe by CLOSPO_02083: up to 90 mM substrate, 60 minutes
Experimental: (§3) Reaction mixtures contained 50 mM sodium phosphate pH 6.5, 300 mM NaCl, and […] PLP. Reactions were initiated by the addition of enzyme and terminated by quenching aliquots with 1 volume of MeOH and performed at 37° C. All substrates purchased from Sigma-Aldrich.
(§4) Under the same buffer and reaction conditions, the kinetic parameters for the decarboxylation of phenylalanine by RUMGNA_01526 were determined by adding RUMGNA_01526 to a final concentration of 500 nM, and the concentration of phenylalanine varied from 5-80 mM. Reactions proceeded for 10 minutes. The kinetic parameters for the decarboxylation of tryptophan by CLOSPO_02083 were determined by adding CLOSPO_02083 to a final concentration of 100 nM, and the concentration of tryptophan varied from 0.15-24.5 mM. Reactions proceeded for 6 minutes.
To gain insight into the substrate selectivity of CLOSPO_02083, the basic kinetic parameters were measured for CLOSPO_02083-catalyzed decarboxylation of the aromatic amino acids Trp, Tyr, and phenylalanine (Phe). To determine kcat and Km for CLOSPO_02083, the concentration of the amino acid substrate was varied under initial velocity conditions (FIGS. 3C and 4A).

[10] = molecular target: T2, RUMGNA_01526; assay type: biochemical, Ruminococcus gnavus
Experimental: as §3
To determine the kinetic parameters for the decarboxylation of tryptophan by RUMGNA 01526, RUMGNA_01526 was added to a final concentration of 10 nM, and kcat and Km were determined by varying the concentration of tryptophan from 0.15-10 mM. Reactions proceeded for 7 minutes and were quenched as described. 100 μL of the quenched reaction was analyzed by HPLC. Peak areas were integrated and compared with a standard curve to calculate product concentration. Triplicate measurements were made from a single batch of purified enzyme. Initial velocity data were fit to the Michaelis-Menten equation by using the program GraphPad. The allosteric sigmoidal model was used by fitting to the Hill equation: y=vmax*x^h/(K0.5^h+x^h), where h is the Hill coefficient and K0.5 is the apparent concentration at half maximal velocity.
as §4
Basic kinetic parameters were measured for the decarboxylation of Trp, Tyr, and Phe by RUMGNA_01526.

[11] = any of the tryptamine concentrations
[12] = 1 μM enzyme, 2.28 mM tyrosine, 90 minutes
[13] = at the highest concentration of Tyr tested

NCCc1c[nH]c2ccccc12 [tryptamine]
change in short circuit current (ion secretion) [1]: significant change in short circuit current; also recorded: significant increase
contractile duration, measured at half amplitude, vs vehicle ([2]; any of the luminal tryptamine treatments): not significantly different
contractile magnitude, area under the curve, vs vehicle [2, 11]: not significantly different
mean contractile amplitude vs vehicle [2, 11]: not significantly different
contractile frequency vs vehicle controls ([2]; luminal 100 μM, 1 mM and 3 mM): not significantly different
contractile frequency ([2]; luminal 1 mM tryptamine, vehicle control 4.1±0.6, P=0.15): 5.9±0.8
cumulative concentration response curves (intestinal secretion) [3]: significantly higher in GF compared to HM and CR
response (Δ Isc) to mucosal application [4]: no response
response (Δ Isc) to serosal application [4]: no response
Δ Isc response ([4]; mucosal application of 3000 μM, 5HTR4 WT mice, maximum response not reached): 99.5±30.7
Emax (Δ Isc) ([4]; serosal application, 5HTR4 WT mice): 110±17 μA/cm2
alteration of Tph1 mRNA levels ([5]; 1 μM, 5 μM, 10 μM and 20 μM, 6 hours): None of the tested tryptamine concentrations (1 μM, 5 μM, 10 μM, and 20 μM) reproducibly showed a significant alteration
biological effect in the presence of 5HT3 receptor antagonist [6]: did not block
biological effect in the presence of 5HT4 receptor antagonist [6]: blocked the biological effect
maximal response (Emax) in the presence of 5HT3 receptor antagonist [6]: is not blocked
maximal response (Emax) in the presence of 5HT4 receptor antagonist [6]: can be blocked

N[C@@](CF)(Cc1c[nH]c2ccccc12)C(=O)O [(S)-α-FMT, (S)-α-fluoromethyltryptophan]
Ki [7]: 0.2 µM
kinact [7]: 0.00167 s⁻¹
Ki [8]: 178 µM
kinact [8]: 0.02 s⁻¹

N[C@@H](Cc1ccc(O)cc1)C(=O)O [tyrosine]
decarboxylation of tyrosine by CLOSPO_02083 [9, 12]: observed
decarboxylation of tyrosine by RUMGNA_01526 [10, 12]: observed

N[C@@H](Cc1c[nH]c2ccccc12)C(=O)O [Trp, tryptophan]
efficiency of decarboxylating Trp relative to Tyr [9, 13]: 600 fold
kcat ([9]; decarboxylation of Trp by CLOSPO_02083): 20 s⁻¹
Km ([9]; decarboxylation of Trp by CLOSPO_02083, 100 nM enzyme, 37° C.): 2800 µM
Km for Trp relative to Phe (lower) ([10]; RUMGNA_01526): 70 fold
catalytic efficiency for Trp relative to Phe ([10]; RUMGNA_01526): > 1000 fold
kcat for Trp relative to Phe (higher) ([10]; RUMGNA_01526): 19 fold
efficiency of decarboxylating Trp relative to Tyr [10, 13]: 1000 fold
kcat ([10]; decarboxylation of Trp by RUMGNA_01526): 73.33 s⁻¹
Km ([10]; decarboxylation of Trp by RUMGNA_01526, 10 nM enzyme, 37° C.): 1100 ± 100 µM

CC(=O)OCC[N+](C)(C)C [ACh, Acetylcholine]
EC50 ([3]; GF mice): 20.6 ± 3 µM
EC50 ([3]; HM mice): 22.7 ± 9 µM
Emax (Δ Isc) ([3]; GF mice): 261±38 μA/cm^2
Emax (Δ Isc) ([3]; HM mice): 299±27 μA/cm^2

CC(=O)O [acetate]
Tph1 expression induction ([5]; acetate 10 mM): 2.5 fold
Tph1 expression induction ([5]; acetate 30 mM): 3.2 fold
Tph1 expression induction ([5]; acetate 50 mM): 2.2 fold

N[C@@H](Cc1ccccc1)C(=O)O [Phe, phenylalanine]
decarboxylation of Phe by CLOSPO_02083 ([9]; 1 μM enzyme): undetectable
decarboxylation of Phe by CLOSPO_02083 ([9]; 1 μM enzyme, listed as phenylalanine): not observed

CCCC(=O)O [Butyrate, butyrate]
Tph1 mRNA induction above controls ([5]; butyrate 500 μM): 3.5 fold
Tph1 mRNA induction above controls ([5]; butyrate 1 mM): 2.5 fold

NCCc1c[nH]c2ccc(O)cc12 [serotonin, 5-hydroxy tryptamine, reference compound]
cumulative concentration response curves (intestinal secretion) [3]: significantly higher in GF compared to HM and CR
response (Δ Isc) to mucosal application [4]: no response
response (Δ Isc) to serosal application [4]: decreased responsiveness
biological effect in the presence of 5HT3 receptor antagonist [6]: blocked the biological effect
biological effect in the presence of 5HT4 receptor antagonist [6]: blocked the biological effect
maximal response (Emax) in the presence of 5HT3 receptor antagonist [6]: can be blocked
maximal response (Emax) in the presence of 5HT4 receptor antagonist [6]: can be blocked

Reference: patent publication US12257235B2, “Methods and materials for using ruminococcus gnavus or clostridium sporogenes to treat gastrointestinal disorders” (Mayo Foundation for Medical Education and Research, priority 2015, dated 2025)
